{"source": "PubChem BioAssay (NCI)", "note": "Values joined by “and” are separate entries in the source; they are usually repeats but may differ in a detail not shown here. Equal entries are not always repeated.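 Each compound was tested at five concentrations against cells in 96-well plates for 48 hours. GI50 = concentration required for 50% inhibition of growth. The concentration for full growth arrest is given as TGI.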", "data": [{"test_system": "SK-MEL-5 melanoma", "assay": "inhibition of tumour cell growth, NCI panel, 48 h", "units": {"GI50": "µM"}, "values": [{"smiles": "COc1ccc(CC2c3cc4c(cc3CCN2C)OCO4)c(C=O)c1OC", "note": "(stereo unspecified)", "TGI": "> 100 µM"}, {"smiles": "O=C(Nc1nc2ccc([N+](=O)[O-])cc2s1)C(=O)C(C1OC(=O)c2ccccc21)[N+](=O)[O-]", "note": "(stereo unspecified)", "TGI": "> 100 µM"}, {"smiles": "COc1cc2c(cc1OCCCCN1CCN(CC(=O)Nc3ccc(Cl)cc3C(=O)c3ccccc3Cl)CC1)N=CC1CCCN1C2=O", "note": "(stereo unspecified)", "GI50": 0.183, "TGI": "0.333 µM"}, {"smiles": "O=C(CCc1nc(=S)[nH][nH]1)Nc1ccc(Cl)c(Cl)c1", "TGI": "55.9 µM"}, {"smiles": "COC(=O)C1(C(C)C)CCc2c(OC)ccc(OC)c2C1=O", "note": "(stereo unspecified)", "TGI": "> 100 µM"}, {"smiles": "COC(=O)c1ccccc1NC(=O)C(=O)Cc1nc2c3c(ccc2[nH]c1=O)C(=O)c1ccccc1C3=O", "TGI": "13.6 µM"}, {"smiles": "Cc1ccc(S(=O)(=O)OC[C@@H]2CO2)cc1", "TGI": "> 100 µM"}, {"smiles": "COc1cc2cc(OC)c3cc4c(cc3c2c(OC)c1OC)OCO4", "TGI": "> 57.2 µM"}, {"smiles": "O=C(CC(=O)c1cccc2ccccc12)C(=O)Nc1ccc(Cl)cc1", "TGI": "> 100 µM"}, {"smiles": "OCc1cc2ccccc2c2c3c(ccc12)OCO3", "GI50": 20.6, "TGI": "59.9 µM"}, {"smiles": "CCCCCCCCCCCCCC(=O)OC(/C=C/C(C)C)C(O)C(O)C(OC)C(=O)NC1CCCCN(C)C1=O", "note": "(stereo unspecified)", "TGI": "5.92 µM and > 49 µM"}, {"smiles": "CC1(C(=O)O)CCC[C@@]2(C)C1CC[C@@]1(C)c3cocc3CCC21", "note": "(stereo partly specified)", "TGI": "> 100 µM"}, {"smiles": "CCn1c(C)nn2c(=O)c3ccccc3nc2c1=O", "TGI": "> 100 µM"}, {"smiles": "COc1cnc2c(c1)C(=O)c1c-2n(CCCN2CCOCC2)c(=O)c2cc(F)ccc12", "GI50": 0.169, "TGI": "0.446 µM"}, {"smiles": "CCOC(=O)CCC1(C(=O)OCC)CCCCC1=O", "note": "(stereo unspecified)", "TGI": "> 100 µM"}, {"smiles": "CCOC1Oc2ccccc2C(=O)/C1=C/Nc1ccc(C(C)=O)cc1", "note": "(stereo unspecified)", "GI50": 19.1, "TGI": "43 µM"}, {"smiles": "CCN(CC)CCSc1c2ccccc2nc2cc(NCC(=O)Nc3ccccc3-c3ccccc3NC(=O)CNc3ccc4c(SCCN(CC)CC)c5ccccc5nc4c3)ccc12", "TGI": "> 100 µM"}, {"smiles": "Cc1nc2c(ccc3ncccc32)[nH]1", "TGI": "> 100 µM"}, {"smiles": "Cc1cc(N(CCC#N)CCC#N)ccc1N=Nc1ccc(S(N)(=O)=O)cc1", "TGI": "> 100 µM"}, {"smiles": "CC(=O)[CH-]C(=O)c1ccccc1.CC(=O)[CH-]C(=O)c1ccccc1.CN(C)c1ccc([O-])cc1.CN(C)c1ccc([O-])cc1.Cl.[Ti+4]", "GI50": 40, "TGI": "> 88 µM"}, {"smiles": "NC(=O)NO.O.O.O.O.O.O.O.O.O.O.O.[Ge].[Ge].[Ge].[Ge].[Ge].[O]=[Ge].[O]=[Ge].[O]=[Ge].[O]=[Ge].[O]=[Ge][OH]", "TGI": "> 100 µM"}, {"smiles": "CN(C)C(=S)N=C(Nc1ccccc1)Nc1ccccc1", "TGI": "> 100 µM"}, {"smiles": "COC(=O)CC[N+]1=CCC(c2ccccc2)(c2ccccc2)O1", "TGI": "> 100 µM"}, {"smiles": "CCN(CC)N=Nc1c(C(N)=O)n[nH]c1C", "TGI": "> 100 µM"}, {"smiles": "CCC[CH2][Sn]([CH2]CCC)([S]c1cccc2cccnc12)[S]c1cccc2cccnc12", "GI50": 0.201, "TGI": "0.534 µM"}, {"smiles": "OCCN(CCO)c1ncnc2c1ncn2Cc1ccc(CCl)cc1", "GI50": 10.9, "TGI": "23.3 µM"}, {"smiles": "Nc1ccccc1S(=O)(=O)N(CC(=O)O)c1ccccc1", "TGI": "> 100 µM"}, {"smiles": "CCOC(=O)C(C)(C)Oc1ccc2c(-c3ccccc3)cc(=O)oc2c1", "TGI": "26.9 µM"}, {"smiles": "CNS(=O)(=O)NNS(=O)(=O)c1ccccc1", "TGI": "> 100 µM"}, {"smiles": "Cc1cc(NS(=O)(=O)c2ccc(Nc3c4ccccc4nc4c(C(=O)N5CCN(CCOS(C)(=O)=O)CC5)cccc34)cc2)no1", "TGI": "> 100 µM"}, {"smiles": "O=C(O)CCC(NC(=O)c1ccc(Nc2nc3ccccc3nc2-c2cccs2)cc1)C(=O)O", "note": "(stereo unspecified)", "TGI": "> 100 µM"}, {"smiles": "NC1=NCCC1(c1ccccc1)c1ccccn1", "note": "(stereo unspecified)", "TGI": "> 100 µM"}, {"smiles": "CNC(=S)OCCC(C)CCCC(C)C", "note": "(stereo unspecified)", "TGI": "31.6 µM"}, {"smiles": "COC1/C=C/OC2(C)Oc3c(C)c(O)c4c(O)c(c(/C=N/Nc5ccc([N+](=O)[O-])cc5[N+](=O)[O-])c(O)c4c3C2=O)NC(=O)C(C)=C/C=C/C(C)C(O)C(C)C(O)C(C)C(OC(C)=O)C1C", "note": "(stereo unspecified)", "GI50": 1.29, "TGI": "3.75 µM"}, {"smiles": "COC(=O)/C(C#N)=C1\\NC(=O)c2ccccc21", "TGI": "> 100 µM"}]}, {"test_system": "MCF7 breast", "assay": "inhibition of tumour cell growth, NCI panel, 48 h", "units": {"GI50": "µM", "TGI": "µM"}, "values": [{"smiles": "Nc1nc(-n2c(-c3ccccc3)nc3c(Br)cc(Br)cc3c2=O)nnc1-c1cccc(Cl)c1Cl", "GI50": 4.9, "TGI": "> 100"}, {"smiles": "COc1ccc(CC2c3cc4c(cc3CCN2C)OCO4)c(C=O)c1OC", "note": "(stereo unspecified)", "TGI": "> 100"}, {"smiles": "COc1cc2c(cc1OCCCCN1CCN(CC(=O)Nc3ccc(Cl)cc3C(=O)c3ccccc3Cl)CC1)N=CC1CCCN1C2=O", "note": "(stereo unspecified)", "GI50": 0.167, "TGI": 0.567}, {"smiles": "OCc1cc2ccccc2c2c3c(ccc12)OCO3", "GI50": 26.5, "TGI": 125}, {"smiles": "CCOC1Oc2ccccc2C(=O)/C1=C/Nc1ccc(C(C)=O)cc1", "note": "(stereo unspecified)", "GI50": 26.7, "TGI": "> 100"}, {"smiles": "COC(=O)CC[N+]1=CCC(c2ccccc2)(c2ccccc2)O1", "TGI": "> 100"}, {"smiles": "CCN(CC)N=Nc1c(C(N)=O)n[nH]c1C", "TGI": "> 100"}, {"smiles": "OCCN(CCO)c1ncnc2c1ncn2Cc1ccc(CCl)cc1", "GI50": 6.3, "TGI": 32.5}, {"smiles": "COC1/C=C/OC2(C)Oc3c(C)c(O)c4c(O)c(c(/C=N/Nc5ccc([N+](=O)[O-])cc5[N+](=O)[O-])c(O)c4c3C2=O)NC(=O)C(C)=C/C=C/C(C)C(O)C(C)C(O)C(C)C(OC(C)=O)C1C", "note": "(stereo unspecified)", "GI50": 2, "TGI": "> 50"}]}, {"test_system": "HOP-62 NSCLC", "assay": "inhibition of tumour cell growth, NCI panel, 48 h", "units": {"GI50": "µM"}, "values": [{"smiles": "Nc1nc(-n2c(-c3ccccc3)nc3c(Br)cc(Br)cc3c2=O)nnc1-c1cccc(Cl)c1Cl", "GI50": 2.84, "TGI": "9.8 µM"}, {"smiles": "Cc1c(C(=O)C/C(=N/NC(=O)c2ccccc2O)C(=O)Nc2ccccc2C(C)C)[n+](=O)c2ccccc2n1[O-]", "TGI": "> 100 µM"}, {"smiles": "CCCCCCCCCCCC(=O)OCCOCCOCCOCCOCCOCc1ccccc1", "TGI": "> 100 µM"}, {"smiles": "CCCC1C(=O)CCc2c(OC)ccc(OC)c21", "note": "(stereo unspecified)", "TGI": "> 100 µM"}, {"smiles": "O=C(CCc1nc(=S)[nH][nH]1)Nc1cc(Cl)c(Cl)cc1Cl", "TGI": "> 100 µM"}, {"smiles": "O=C(Nc1nc2ccc([N+](=O)[O-])cc2s1)C(=O)C(C1OC(=O)c2ccccc21)[N+](=O)[O-]", "note": "(stereo unspecified)", "TGI": "> 100 µM"}, {"smiles": "COc1cc2c(cc1OCCCCN1CCN(CC(=O)Nc3ccc(Cl)cc3C(=O)c3ccccc3Cl)CC1)N=CC1CCCN1C2=O", "note": "(stereo unspecified)", "GI50": 0.196, "TGI": "0.411 µM"}, {"smiles": "O=C(CCc1nc(=S)[nH][nH]1)Nc1ccc(Cl)c(Cl)c1", "TGI": "> 100 µM"}, {"smiles": "COC(=O)C1(C(C)C)CCc2c(OC)ccc(OC)c2C1=O", "note": "(stereo unspecified)", "TGI": "> 100 µM"}, {"smiles": "COC(=O)c1ccccc1NC(=O)C(=O)Cc1nc2c3c(ccc2[nH]c1=O)C(=O)c1ccccc1C3=O", "TGI": "39.1 µM"}, {"smiles": "Cc1ccc(S(=O)(=O)OC[C@@H]2CO2)cc1", "TGI": "> 100 µM"}, {"smiles": "COc1cc2cc(OC)c3cc4c(cc3c2c(OC)c1OC)OCO4", "TGI": "> 100 µM"}, {"smiles": "O=C(CC(=O)c1cccc2ccccc12)C(=O)Nc1ccc(Cl)cc1", "TGI": "> 100 µM"}, {"smiles": "OCc1cc2ccccc2c2c3c(ccc12)OCO3", "GI50": 31.6, "TGI": "131 µM"}, {"smiles": "CCCCCCCCCCCCCC(=O)OC(/C=C/C(C)C)C(O)C(O)C(OC)C(=O)NC1CCCCN(C)C1=O", "note": "(stereo unspecified)", "TGI": "6.54 µM and > 49 µM"}, {"smiles": "CC1(C(=O)O)CCC[C@@]2(C)C1CC[C@@]1(C)c3cocc3CCC21", "note": "(stereo partly specified)", "TGI": "> 100 µM"}, {"smiles": "CCn1c(C)nn2c(=O)c3ccccc3nc2c1=O", "TGI": "> 100 µM"}, {"smiles": "COc1cnc2c(c1)C(=O)c1c-2n(CCCN2CCOCC2)c(=O)c2cc(F)ccc12", "GI50": 0.187, "TGI": "0.991 µM"}, {"smiles": "CCOC(=O)CCC1(C(=O)OCC)CCCCC1=O", "note": "(stereo unspecified)", "TGI": "> 100 µM"}, {"smiles": "CCOC1Oc2ccccc2C(=O)/C1=C/Nc1ccc(C(C)=O)cc1", "note": "(stereo unspecified)", "GI50": 18.5, "TGI": "40 µM"}, {"smiles": "CCN(CC)CCSc1c2ccccc2nc2cc(NCC(=O)Nc3ccccc3-c3ccccc3NC(=O)CNc3ccc4c(SCCN(CC)CC)c5ccccc5nc4c3)ccc12", "TGI": "> 100 µM"}, {"smiles": "Cc1nc2c(ccc3ncccc32)[nH]1", "TGI": "> 100 µM"}, {"smiles": "Cc1cc(N(CCC#N)CCC#N)ccc1N=Nc1ccc(S(N)(=O)=O)cc1", "TGI": "> 100 µM"}, {"smiles": "CC(=O)[CH-]C(=O)c1ccccc1.CC(=O)[CH-]C(=O)c1ccccc1.CN(C)c1ccc([O-])cc1.CN(C)c1ccc([O-])cc1.Cl.[Ti+4]", "GI50": 21.8, "TGI": "> 31.6 µM"}, {"smiles": "CC1(C)C(=O)/C=C\\C(=O)C(C)(C)C2=CC=C(O2)C(C)(C)C(=O)/C=C\\C(=O)C(C)(C)C2=CC=C1O2", "TGI": "> 100 µM"}, {"smiles": "NC(=O)NO.O.O.O.O.O.O.O.O.O.O.O.[Ge].[Ge].[Ge].[Ge].[Ge].[O]=[Ge].[O]=[Ge].[O]=[Ge].[O]=[Ge].[O]=[Ge][OH]", "TGI": "> 100 µM"}, {"smiles": "CN(C)C(=S)N=C(Nc1ccccc1)Nc1ccccc1", "TGI": "> 100 µM"}, {"smiles": "COC(=O)CC[N+]1=CCC(c2ccccc2)(c2ccccc2)O1", "TGI": "> 100 µM"}, {"smiles": "CCN(CC)N=Nc1c(C(N)=O)n[nH]c1C", "TGI": "> 100 µM"}, {"smiles": "CCC[CH2][Sn]([CH2]CCC)([S]c1cccc2cccnc12)[S]c1cccc2cccnc12", "GI50": 0.355, "TGI": "2.79 µM"}, {"smiles": "OCC1=CC(NC2CC(CO)C(O)C(O)C2O)C(O)C(O)C1O", "note": "(stereo unspecified)", "TGI": "> 100 µM"}, {"smiles": "OCCN(CCO)c1ncnc2c1ncn2Cc1ccc(CCl)cc1", "GI50": 23.8, "TGI": "41.1 µM"}, {"smiles": "CCOC(=O)C(C)(C)Oc1ccc2c(-c3ccccc3)cc(=O)oc2c1", "TGI": "63.7 µM"}, {"smiles": "CNS(=O)(=O)NNS(=O)(=O)c1ccccc1", "TGI": "> 100 µM"}, {"smiles": "Cc1cc(NS(=O)(=O)c2ccc(Nc3c4ccccc4nc4c(C(=O)N5CCN(CCOS(C)(=O)=O)CC5)cccc34)cc2)no1", "TGI": "> 100 µM"}]}]}
